Measured values from patent publication US9546152B2 (MERCK SHARP & DOHME CORP., priority 2012, dated 2017).

What was measured:
human orexin-2 receptor [1] = target: T1, human orexin-2 receptor (Homo sapiens (Human), UniProt O43614); experiment: radioligand binding assay, orexin-2 receptor; conditions: membranes prepared from CHO cells expressing the OX2 receptor; read-out: hOX2R BIND hKi
rat orexin-1 receptor = rat orexin-1 receptor (Rattus norvegicus (Rat), UniProt P56718); experiment: FLIPR Ca2+ Flux Assay, orexin-1 receptor; type: cell-based; conditions: CHO cells expressing the rat orexin-1 receptor; agonist 70 pM Ala-6,12 human orexin-A; read-out: hOX1R FLIPR IC50
Method in brief: (§1)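 Using CHO lines carrying either rat orexin-1 or human orexin-2 receptor, compounds were tested as antagonists of 70 pM Ala-6,12 orexin-A-evoked calcium rises. Fluo-4 signal was read on a FLIPR over 5 min after a 5 min compound preincubation.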

human orexin-2 receptor [2] = target: T1, human orexin-2 receptor; experiment: FLIPR Ca2+ Flux Assay, orexin-2 receptor; type: cell-based; conditions: CHO cells expressing the human orexin-2 receptor; agonist 70 pM Ala-6,12 human orexin-A; read-out: hOX2R FLIPR IC50
Method in brief: as §1

T1 sequence (O43614 whole entry): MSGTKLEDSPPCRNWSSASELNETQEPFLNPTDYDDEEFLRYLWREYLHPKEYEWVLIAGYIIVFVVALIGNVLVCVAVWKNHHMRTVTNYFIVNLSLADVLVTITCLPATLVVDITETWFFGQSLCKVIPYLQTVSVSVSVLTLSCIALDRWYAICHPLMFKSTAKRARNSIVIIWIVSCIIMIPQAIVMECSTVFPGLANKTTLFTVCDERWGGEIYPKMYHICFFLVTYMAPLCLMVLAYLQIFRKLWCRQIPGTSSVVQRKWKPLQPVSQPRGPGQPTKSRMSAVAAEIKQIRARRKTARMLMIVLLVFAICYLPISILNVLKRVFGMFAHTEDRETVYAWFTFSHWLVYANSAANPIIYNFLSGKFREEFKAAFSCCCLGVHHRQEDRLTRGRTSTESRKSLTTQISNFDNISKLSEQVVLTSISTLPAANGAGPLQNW
Sequence of rat orexin-1 receptor (P56718 whole entry): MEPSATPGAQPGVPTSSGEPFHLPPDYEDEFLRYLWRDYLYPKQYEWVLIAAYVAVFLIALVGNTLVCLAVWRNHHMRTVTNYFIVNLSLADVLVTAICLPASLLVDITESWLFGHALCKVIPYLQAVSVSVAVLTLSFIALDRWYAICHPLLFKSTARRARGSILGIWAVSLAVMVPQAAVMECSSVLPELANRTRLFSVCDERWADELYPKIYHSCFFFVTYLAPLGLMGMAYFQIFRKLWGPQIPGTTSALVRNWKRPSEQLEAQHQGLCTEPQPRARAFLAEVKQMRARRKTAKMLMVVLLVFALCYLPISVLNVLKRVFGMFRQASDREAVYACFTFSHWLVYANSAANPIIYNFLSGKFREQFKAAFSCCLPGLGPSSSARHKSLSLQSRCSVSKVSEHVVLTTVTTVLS

Compound	Ki (human orexin-2 receptor [1]) [µM]	IC50 (rat orexin-1 receptor) [µM]	IC50 (human orexin-2 receptor [2]) [µM]
Cc1noc(-c2ccccc2C(=O)N2C[C@H](Oc3nccc(C#N)c3C)CC[C@H]2C)n1 [Example 58, 3-methyl-2-{[(3R,6R)-6-methyl-1-{[2-(3-methyl-1,2,4-oxadiazol-5-yl)phenyl]carbonyl}piperidin-3-yl]oxy}pyridine-4-carbonitrile]	0.0005	0.733	0.012
CCc1ccccc1C(=O)N1C[C@H](Oc2nccc(C#N)c2C)CC[C@H]1C [Example 59, 2-({(3R,6R)-1-[(2-ethylphenyl)carbonyl]-6-methylpiperidin-3-yl}oxy)-3-methylpyridine-4-carbonitrile]	0.0037	> 10	0.031
Cc1c(C#N)ccnc1O[C@@H]1CC[C@@H](C)N(C(=O)c2cccnc2-c2ccccc2)C1 [Example 60, 3-methyl-2-({(3R,6R)-6-methyl-1-[(2-phenylpyridin-3-yl)carbonyl]piperidin-3-yl}oxy)pyridine-4-carbonitrile]	0.0026	4.67	0.026
CSc1ccccc1C(=O)N1C[C@H](Oc2nccc(C#N)c2C)CC[C@H]1C [Example 61, 3-methyl-2-{[(3R,6R)-6-methyl-1-{[2-(methylsulfanyl)phenyl]carbonyl}piperidin-3-yl]oxy}pyridine-4-carbonitrile]	0.0014	7.95	0.035
Cc1c(C#N)ccnc1O[C@@H]1CC[C@@H](C)N(C(=O)c2ccc(OCF)cc2-n2nccn2)C1 [Example 64, 2-{[(3R,6R)-1-{[4-(fluoromethoxy)-2-(2H-1,2,3-triazol-2-yl)phenyl]carbonyl}-6-methylpiperidin-3-yl]oxy}-3-methylpyridine-4-carbonitrile]	0.0033	4.49	0.035
Cc1c(C#N)ccnc1O[C@@H]1CC[C@@H](C)N(C(=O)c2cnc(Cl)cc2-n2nccn2)C1 [Example 67, 2-{[(3R,6R)-1-{[6-chloro-4-(2H-1,2,3-triazol-2-yl)pyridin-3-yl]carbonyl}-6-methylpiperidin-3-yl]oxy}-3-methylpyridine-4-carbonitrile]	0.0047	> 10	0.035
CCOc1ncccc1C(=O)N1C[C@H](Oc2nccc(C#N)c2C)CC[C@H]1C [Example 68]	0.0059	> 10	0.036
Cc1c(C#N)ccnc1O[C@@H]1CC[C@@H](C)N(C(=O)c2ccccc2-n2ncnn2)C1 [Example 70, 3-methyl-2-{[(3R,6R)-6-methyl-1-{[2-(2H-tetrazol-2-yl)phenyl]carbonyl}piperidin-3-yl]oxy}pyridine-4-carbonitrile]	0.0016	4.59	0.0077
Cc1c(C#N)ccnc1O[C@@H]1CC[C@@H](C)N(C(=O)c2cc(C#N)ccc2-n2nccn2)C1 [Example 71, 2-{[(3R,6R)-1-{[5-cyano-2-(2H-1,2,3-triazol-2-yl)phenyl]carbonyl}-6-methylpiperidin-3-yl]oxy}-3-methylpyridine-4-carbonitrile]	0.0055	1.85	0.04
Cc1c(C#N)ccnc1O[C@@H]1CC[C@@H](C)N(C(=O)c2ccc(Cl)nc2-n2nccn2)C1 [Example 72, 2-{[(3R,6R)-1-{[6-chloro-2-(2H-1,2,3-triazol-2-yl)pyridin-3-yl]carbonyl}-6-methylpiperidin-3-yl]oxy}-3-methylpyridine-4-carbonitrile]	0.0035	> 10	0.075
Cc1c(C#N)ccnc1O[C@@H]1CC[C@@H](C)N(C(=O)c2sccc2-c2ncccn2)C1 [Example 75, 3-methyl-2-({(3R,6R)-6-methyl-1-[(3-pyrimidin-2-ylthiophen-2-yl)carbonyl]piperidin-3-yl}oxy)pyridine-4-carbonitrile]	0.0008	1.4	0.015
Cc1ccc(C(=O)N2C[C@H](Oc3nccc(C#N)c3C)CC[C@H]2C)c(-c2ncccn2)c1 [Example 76, 3-methyl-2-({(3R,6R)-6-methyl-1-[(4-methyl-2-pyrimidin-2-ylphenyl)carbonyl]piperidin-3-yl}oxy)pyridine-4-carbonitrile]	0.0021	1.27	0.037
COc1ccc(C(=O)N2C[C@H](Oc3nccc(C#N)c3C)CC[C@H]2C)c(-c2ccccc2)n1 [Example 78, 2-({(3R,6R)-1-[(6-methoxy-2-phenylpyridin-3-yl)carbonyl]-6-methylpiperidin-3-yl}oxy)-3-methylpyridine-4-carbonitrile]	0.0012	1.26	0.092
COc1ccc(C(=O)N2C[C@H](Oc3nccc(C#N)c3C)CC[C@H]2C)c(-c2ccnn2C)n1 [Example 79, 2-{[(3R,6R)-1-{[6-methoxy-2-(1-methyl-1H-pyrazol-5-yl)pyridin-3-yl]carbonyl}-6-methylpiperidin-3-yl]oxy}-3-methylpyridine-4-carbonitrile]	0.0099	10	0.0856
COc1ccc(C(=O)N2C[C@H](Oc3nccc(C#N)c3C)CC[C@H]2C)c(-c2ccn(C)n2)n1 [Example 81, 2-{[(3R,6R)-1-{[6-methoxy-2-(1-methyl-1H-pyrazol-3-yl)pyridin-3-yl]carbonyl}-6-methylpiperidin-3-yl]oxy}-3-methylpyridine-4-carbonitrile]	0.0084	10	0.0646
COc1ccc(C(=O)N2C[C@H](Oc3nccc(C#N)c3C)CC[C@H]2C)c(-c2cccnc2)n1 [Example 82, 2-({(3R,6R)-1-[(6-methoxy-2,3′-bypyridin-3-yl)carbonyl]-6-methylpiperidin-3-yl}oxy)-3-methylpyridine-4-carbonitrile]	0.0024	8.41	0.0554
COc1ccc(C(=O)N2C[C@H](Oc3nccc(C#N)c3C)CC[C@H]2C)c(-c2ccccn2)n1 [Example 83, 2-({(3R,6R)-1-[(6-methoxy-2,2′-bypyridin-3-yl)carbonyl]-6-methylpiperidin-3-yl}oxy)-3-methylpyridine-4-carbonitrile]	0.00084	10	0.0646
COc1ccc(C(=O)N2C[C@H](Oc3nccc(C#N)c3C)CC[C@H]2C)c(SC)n1 [Example 84, 2-{[(3R,6R)-1-{[6-Methoxy-2-(methylsulfanyl)pyridin-3-yl]carbonyl}-6-methylpiperidin-3-yl]oxy}-3-methylpyridine-4-carbonitrile]	0.002	> 10	0.022
COc1ccc(C(=O)N2C[C@H](Oc3nccc(C#N)c3C)CC[C@H]2C)c(N(C)C)n1 [Example 87, 2-{[(3R,6R)-1-{[2-(Dimethylamino)-6-methoxypyridin-3-yl]carbonyl}-6-methylpiperidin-3-yl]oxy}-3-methylpyridine-4-carbonitrile]	0.009	> 10	0.069
Cc1c(C#N)ccnc1O[C@@H]1CC[C@@H](C)N(C(=O)c2ccc(OCF)nc2-n2nccn2)C1 [Example 88, 2-{[(3R,6R)-1-{[6-(Fluoromethoxy)-2-(2H-1,2,3-triazol-2-yl)pyridin-3-yl]carbonyl}-6-methylpiperidin-3-yl]oxy}-3-methylpyridine-4-carbonitrile]	0.0092	> 10	0.058
Cc1c(C#N)ccnc1O[C@@H]1CC[C@@H](C)N(C(=O)c2ccc(Br)nc2-n2nccn2)C1 [Example 89, 2-{[(3R,6R)-1-{[6-Bromo-2-(2H-1,2,3-triazol-2-yl)pyridin-3-yl]carbonyl}-6-methylpiperidin-3-yl]oxy}-3-methylpyridine-4-carbonitrile]	0.0051	> 10	0.029
C=Cc1ccc(C(=O)N2C[C@H](Oc3nccc(C#N)c3C)CC[C@H]2C)c(-n2nccn2)n1 [Example 90, 2-{[(3R,6R)-1-{[6-ethenyl-2-(2H-1,2,3-triazol-2-yl)pyridin-3-yl]carbonyl}-6-methylpiperidin-3-yl]oxy}-3-methylpyridine-4-carbonitrile]	0.0129	> 10	0.088
C[C@@H]1CC[C@@H](Oc2nccc(C#N)c2Cl)CN1C(=O)c1ccccc1-n1nccn1 [Example 91, 3-Chloro-2-{[(3R,6R)-6-methyl-1-{[2-(2H-1,2,3-triazol-2-yl)phenyl]carbonyl}piperidin-3-yl]oxy}pyridine-4-carbonitrile]	0.0008	1.6	0.008
C[C@@H]1CC[C@@H](Oc2nccc(C#N)c2C#N)CN1C(=O)c1ccccc1-n1nccn1 [Example 94, 2-{[(3R,6R)-6-methyl-1-{[2-(2H-1,2,3-triazol-2-yl)phenyl]carbonyl}piperidin-3-yl]oxy}pyridine-3,4-dicarbonitrile]	0.0044	> 10	0.04
CSc1c(C#N)ccnc1O[C@@H]1CC[C@@H](C)N(C(=O)c2ccccc2-n2nccn2)C1 [Example 95, 3-(Methylsulfanyl)-2-{[(3R,6R)-6-methyl-1-{[2-(2H-1,2,3-triazol-2-yl)phenyl]carbonyl}piperidin-3-yl]oxy}pyridine-4-carbonitrile]	0.0001	0.306	0.006
COc1c(C#N)ccnc1O[C@@H]1CC[C@@H](C)N(C(=O)c2ccccc2-n2nccn2)C1 [Example 96, 3-Methoxy-2-{[(3R,6R)-6-methyl-1-{[2-(2H-1,2,3-triazol-2-yl)phenyl]carbonyl}piperidin-3-yl]oxy}pyridine-4-carbonitrile]	0.0003	1.26	0.009
